Data taken from patent US20120164671A1, “METHODS FOR MONITORING IMMUNOSUPPRESSANT DRUG LEVELS, RENAL FUNCTION, AND HEPATIC FUNCTION USING SMALL VOLUME SAMPLES” (priority 2008, published 2012).
Read-outs that look alike come from different tables or passages of the source.

Details: human, in vivo
Protocol: The patient collected an approximately 500 μL blood sample from a fingerstick. The small volume blood sample was collected as described above, using a K2-EDTA collection tube, and timely transported to the testing facility. At the testing facility, the whole blood sample in K2-EDTA was split into 3 fractions: (1) 50 μL for immunosuppressant drug monitoring using tandem mass spectrometry, (2) 50 μL for complete blood count by flow cytometry, and (3) the remainder for various other tests.
The first fraction was prepared by adding 200 μL of ZnSO4 (zinc sulfate) to the fraction, and the cells were lysed by vortexing for 10 seconds. Then 500 μL of a solution containing acetonitrile and internal reference standards (ascomycin: 2 nanograms (ng)/ml, along with cyclosporin D 25 ng/ml) was added, and the sample was mixed by vortexing for 20 seconds. The tubes were then spun down for 4 minutes at 14,000×g (14,000 times gravity). The supernatant was decanted into vials for assay by mass spectrometry.
The patient collected an approximately 500 μL blood sample from a fingerstick. The small volume blood sample was collected using a K2-EDTA collection tube, transported to the testing facility, and divided into three fractions as described above. Each fraction was prepared as described above for the adult patient, and the same immunosuppressant drug monitoring of immunosuppressants, complete blood count, assays for renal function, and assays for hepatic function were performed.

Row | SMILES | Result (blood level) (female) | Result (blood level) (male)
1 | CO[C@H]1C[C@@H]2CC[C@@H](C)[C@@](O)(O2)C(=O)C(=O)N2CCCC[C@H]2C(=O)O[C@H]([C@H](C)C[C@@H]2CC[C@@H](O)[C@H](OC)C2)CC(=O)[C@H](C)/C=C(\C)[C@@H](O)[C@@H](OC)C(=O)[C@H](C)C[C@H](C)/C=C/C=C/C=C/1C [Rapamycin] | 3.10 µg/L | 5.10 µg/L
2 | C=CC[C@@H]1/C=C(\C)C[C@H](C)C[C@H](OC)[C@H]2O[C@@](O)(C(=O)C(=O)N3CCCC[C@H]3C(=O)O[C@H](/C(C)=C/[C@@H]3CC[C@@H](O)[C@H](OC)C3)[C@H](C)[C@@H](O)CC1=O)[C@H](C)C[C@@H]2OC [Tacrolimus] | 10.80 µg/L | 6.80 µg/L
